From article PMC8058733, “A pain killer without analgesic tolerance designed by co-targeting PSD-95-nNOS interaction and α2-containning GABAARs” (Theranostics, 2021)

Columns and labels:
[1] = biological target: T1, PSD-95-nNOS complex (Rattus norvegicus, UniProt P29476); assay: Co-IP of PSD-95-nNOS complex levels in the spinal dorsal horn after SNL; assay type: in vivo; settings: SNL rats, ZL006 10 mg/kg, i.v.
T1 construct: dorsal spinal cord tissues (L4 and L5) were lysed in 400 μl RIPA; from tissue; host or cells: rat dorsal spinal cord (L4 and L5), SNL model

[2] = tested on: SNL-induced mechanical hyperalgesia; assay: SNL-induced mechanical hyperalgesia, paw withdrawal threshold; assay type: in vivo, rat; settings: SNL rats, ZL006 0.2 mg/d intrathecal infusion × 11 days
Description: (§1) Neuropathic pain was induced by segmental spinal nerve ligation (SNL). Animals were anesthetized with isoflurane. After the loss of righting reflex, the animal was fixed in the prone position. The SNL model was prepared as described previously: a median skin incision with about 3-5 cm length in L4-S2 level of the mouse back was made, the muscles next to the vertebrae till the sixth lumbar protruding were separated, the L5/L6 joint protruding on the right side was exposed and excised, and L6 processus transversus was partially split so that the L4-L6 spinal nerves on the right side were exposed. L5 nerve was gently isolated and tightly ligated with 5-0 silk thread. The wound was closed with 4-0 silk thread suture and covered with iodine solution. After nerve ligation, animals with signs of paw clonus or autotomy were excluded from further experiments.
(§2) Osmotic minipumps (models 1004 for mouse and 2ML4 for rat; Alzet) and intrathecal cannulas (0.61 mm outer diameter and 0.28 mm inner diameter for mouse, 0.99 mm outer diameter and 0.58 mm inner diameter for rat) were filled with a solution of PBS. Cannulas were inserted into the subarachnoid space through the space between the L5 and L6 vertebrae and the tip of the catheter was implanted at the L5 spinal segmental level.
For rats, the threshold for 50% paw withdrawal (50% PWT) response to mechanical stimulus was assessed through a dynamic plantar apparatus (Ugo Basile, Italy). The 50% PWT refers to that the probability of paw withdrawal response to repeated mechanical stimulus is 50%. Rats were placed individually in a plastic cage (17 × 15 × 15 cm) with a wire mesh bottom which allowed full access to the paws. Behavioral accommodation was allowed for 15-20 min until cage exploration and major grooming activities ceased. A maximal cut-off of 50g/50s was set to prevent tissue damage. To record the PWT in response to mechanical stimulus, each rat was measured five times with a 5-min interval, and the mean value was recorded after excluding maximal and minimum values. The experimental procedures were performed in a double-blind manner.

[3] = tested on: SNL-induced thermal hyperalgesia; assay: SNL-induced thermal hyperalgesia, paw withdrawal latency (Hargreaves); assay type: in vivo, rat; settings: SNL rats, ZL006 0.2 mg/d intrathecal infusion × 11 days
Description: as §1
Osmotic minipumps (models 1004 for mouse and 2ML4 for rat; Alzet) and intrathecal cannulas (0.61 mm outer diameter and 0.28 mm inner diameter for mouse, 0.99 mm outer diameter and 0.58 mm inner diameter for rat) were filled with a solution of PBS. […]
(§3) Paw withdrawal latency (PWL) response to thermal stimulus was assessed through the Hargreaves test. […] To record the PWL in response to thermal stimulus, each animal was measured five times with a 5-min interval, and the mean value was recorded after excluding maximal and minimum values. […]

[4] = tested on: SNL-induced mechanical hyperalgesia; assay: SNL-induced mechanical hyperalgesia, von Frey; assay type: in vivo, mice; settings: WT and nNOS-/- mice, ZL006 i.v., 20 mg/kg
Description: as §1
For mice, the threshold for 50% PWT response to mechanical stimulus was quantified by assessing the paw withdrawal threshold using von Frey filaments (Touch-Test TM Sensory Evaluator, North coast Medical, Inc.). Mice were placed individually in a plastic cage (4.5 × 5 × 11 cm) with a wire mesh bottom which allowed full access to the paws. Behavioral accommodation was allowed for 20-30 min until cage exploration and major grooming activities ceased. Mechanical threshold was measured by applying a von Frey filament to the ventral surface of the right hind paw until a positive sign of pain behavior was elicited. The paradigm for assessing the threshold was as follows. Von Frey filaments with logarithmically incremental stiffness (0.02-2 g) were applied serially to the paw by the up-down method. The filaments were presented, in ascending order of strength, perpendicular to the plantar surface with sufficient force to causes light bending against the paw and held for 4s. A positive response was noted if the paw was sharply withdrawn. Flinching immediately upon removal of the hair was also considered a positive response. The 2-g filament was selected as the upper limit cut-off for testing. If there was no response at 2-g filament, animals were assigned this cut-off value. The pattern of positive and negative withdrawal responses was converted to 50% threshold according to the formula: 50% PWT = 10 log (X) + κδ. X = value (in log unit) of the final von Frey hair used; κ is correction factors based on the pattern of responses from the calibration table; δ = mean difference in log units between stimuli (here, 0.224).

[5] = tested on: SNL-induced thermal hyperalgesia; assay: SNL-induced thermal hyperalgesia, paw withdrawal latency; assay type: in vivo, mice; settings: WT and nNOS-/- mice, ZL006 i.v., 20 mg/kg
Description: as §1, with “The wound was closed with 4-0 silk thread suture and covered with iodine solution. After nerve ligation, animals with signs of paw clonus or autotomy were excluded from further experiments.” left out
as §3
(A) Time course of SNL-induced thermal hyperalgesia after treating with ZL006-05 (60 mg/kg, i.g.) in mice. Paw withdrawal latency response to thermal stimulation was detected at 0, 1, 2, 4, 6, 8, 10, 12 and 24 h after drug administration. ( B) Areas under the curve of paw withdrawal latency 0-24 h after treatment calculated from ( A) (F (1,16) = 43.07, ***p < 0.001, two-tailed t-test, n = 9). […]

[6] = tested on: laminae I excitatory neurons in the SDH; assay: mIPSCs/mEPSCs recordings from acute spinal slices of chronically treated rats; assay type: in vivo, rat; settings: SNL rats, ZL006 0.2 mg/d intrathecal × 11 days
Excerpt: as §2
All solutions were bubbled with 95% O2 -5% CO2.
For mPSCs measurements, whole-cell recordings were made from putative excitatory neurons in superficial dorsal horn using low-resistance pipettes (4-8 MΩ). Before mPSCs measurements, excitatory neurons were distinguished from inhibitory neurons by firing pattern analysis according to the established relationship between neuronal firing pattern and its neurotransmitter phenotype, [32]-[34] For mEPSCs measurement, the membrane potential was held at -60 mV. […] Tetrodotoxin (0.5 μM) and bicuculline (20 μM) were added to block action potentials and GABAA receptor-mediated currents respectively. For mIPSCs measurement, the membrane potential was held at -70 mV, microelectrodes were filled with internal pipette solution containing CsCl 140, HEPES 10.0, MgATP 4.0, NaGTP 3.0, EGTA 1.0, MgCl2 1.0, CaCl2 0.3 (in mM). […]. […] Each recording lasts more than 5 min. Data were analyzed using Mini software. Up to 120 events from each neuron were selected at a fixed sampling interval to generate cumulative probability.

[7] = tested on: neuropathic pain; design: method as in PMID 32632774; settings: treatment of neuropathic pain, chronic use; cited from earlier work

T1 sequence (P29476 whole entry, one chain of several): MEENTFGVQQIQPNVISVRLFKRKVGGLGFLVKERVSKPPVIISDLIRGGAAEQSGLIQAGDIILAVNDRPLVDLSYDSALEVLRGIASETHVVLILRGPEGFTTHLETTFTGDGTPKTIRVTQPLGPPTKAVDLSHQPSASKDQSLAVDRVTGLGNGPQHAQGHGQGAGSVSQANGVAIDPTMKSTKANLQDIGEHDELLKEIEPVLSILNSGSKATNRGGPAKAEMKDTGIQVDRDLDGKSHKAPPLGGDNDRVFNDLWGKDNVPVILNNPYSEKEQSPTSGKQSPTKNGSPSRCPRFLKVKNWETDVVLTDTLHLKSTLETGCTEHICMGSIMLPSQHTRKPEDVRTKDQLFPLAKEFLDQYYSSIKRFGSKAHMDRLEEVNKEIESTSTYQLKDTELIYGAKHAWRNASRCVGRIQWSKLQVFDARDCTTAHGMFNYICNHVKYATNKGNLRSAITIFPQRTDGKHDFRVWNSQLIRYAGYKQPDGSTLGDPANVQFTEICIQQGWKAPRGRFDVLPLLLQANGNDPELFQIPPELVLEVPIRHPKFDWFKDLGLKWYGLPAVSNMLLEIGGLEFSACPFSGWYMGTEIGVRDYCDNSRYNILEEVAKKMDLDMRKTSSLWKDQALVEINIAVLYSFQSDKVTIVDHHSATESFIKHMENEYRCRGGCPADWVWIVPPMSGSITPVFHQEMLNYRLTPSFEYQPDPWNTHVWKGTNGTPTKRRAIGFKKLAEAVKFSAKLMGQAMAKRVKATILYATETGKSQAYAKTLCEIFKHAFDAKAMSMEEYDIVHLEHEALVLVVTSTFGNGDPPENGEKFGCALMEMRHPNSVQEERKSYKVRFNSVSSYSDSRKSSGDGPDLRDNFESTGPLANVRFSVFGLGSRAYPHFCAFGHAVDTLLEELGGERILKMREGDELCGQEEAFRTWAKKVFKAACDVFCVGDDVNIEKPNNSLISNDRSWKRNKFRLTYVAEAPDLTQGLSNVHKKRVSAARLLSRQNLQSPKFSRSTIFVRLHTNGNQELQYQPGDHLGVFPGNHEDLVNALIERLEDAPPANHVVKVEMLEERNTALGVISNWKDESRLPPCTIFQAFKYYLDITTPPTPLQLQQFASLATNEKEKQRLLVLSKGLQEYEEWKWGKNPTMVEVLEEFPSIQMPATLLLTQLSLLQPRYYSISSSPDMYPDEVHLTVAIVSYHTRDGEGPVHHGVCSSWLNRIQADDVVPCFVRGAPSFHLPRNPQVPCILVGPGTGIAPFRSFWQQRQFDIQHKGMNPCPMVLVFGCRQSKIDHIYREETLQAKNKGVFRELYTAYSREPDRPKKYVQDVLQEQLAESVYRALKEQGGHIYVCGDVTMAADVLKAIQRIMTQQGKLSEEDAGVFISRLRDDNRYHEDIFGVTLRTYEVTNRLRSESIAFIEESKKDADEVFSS

Structure (SMILES): O=C(O)c1ccc(NCc2cc(Cl)cc(Cl)c2O)cc1O [ZL006]
- PSD-95-nNOS complex level in the SDH [1]: reversed the SNL-induced upregulation of PSD-95-nNOS interaction
- Antinociceptive effect on mechanical hyperalgesia during chronic use (tolerance) [2]: decreased dramatically at d 7 and d 11, compared to d 1
- Antinociceptive effect on thermal hyperalgesia during chronic use (tolerance) [3]: decreased dramatically at d 7 and d 11, compared to d 1
- Effect on SNL-induced mechanical hyperalgesia [4]: attenuated both mechanical and thermal hyperalgesia markedly in WT but not in nNOS^-/- mice
- Effect on SNL-induced thermal hyperalgesia [5]: attenuated both mechanical and thermal hyperalgesia markedly in WT but not in nNOS^-/- mice
- mEPSCs [6]: did not affect SNL-induced increase in miniature excitatory postsynaptic currents (mEPSCs)
- mIPSCs frequency and amplitude ([6]; vs vehicle): significantly lower than that in vehicle-treated rats
- Analgesic tolerance when used chronically [7]: cause obvious analgesic tolerance
